Assay results reported in US20230079819A1, “COMPOUNDS AND USES THEREOF” (Foghorn Therapeutics Inc., priority 2019, published 2023).

Tests used:
[1] = molecular target: T1, BRG-1 (Homo sapiens, UniProt P51532); test: ATPase catalytic activity of BRG-1, ADP-Glo in vitro biochemical assay; settings: ATPase catalytic activity, 30 nM BRG-1, 400 μM ATP, read-out: BRG1 IP50 (μM)*
T1 construct: made in house; host or cells: High Five insect cells

[2] = molecular target: T2, BRM (Homo sapiens, UniProt P51531); test: ATPase catalytic activity of BRM, ADP-Glo in vitro biochemical assay; settings: ATPase catalytic activity, 30 nM BRM, 400 μM ATP, read-out: BRM IP50 (μM)*
T2 construct: made in house; host or cells: High Five insect cells
T2 sequence (P51531 whole entry): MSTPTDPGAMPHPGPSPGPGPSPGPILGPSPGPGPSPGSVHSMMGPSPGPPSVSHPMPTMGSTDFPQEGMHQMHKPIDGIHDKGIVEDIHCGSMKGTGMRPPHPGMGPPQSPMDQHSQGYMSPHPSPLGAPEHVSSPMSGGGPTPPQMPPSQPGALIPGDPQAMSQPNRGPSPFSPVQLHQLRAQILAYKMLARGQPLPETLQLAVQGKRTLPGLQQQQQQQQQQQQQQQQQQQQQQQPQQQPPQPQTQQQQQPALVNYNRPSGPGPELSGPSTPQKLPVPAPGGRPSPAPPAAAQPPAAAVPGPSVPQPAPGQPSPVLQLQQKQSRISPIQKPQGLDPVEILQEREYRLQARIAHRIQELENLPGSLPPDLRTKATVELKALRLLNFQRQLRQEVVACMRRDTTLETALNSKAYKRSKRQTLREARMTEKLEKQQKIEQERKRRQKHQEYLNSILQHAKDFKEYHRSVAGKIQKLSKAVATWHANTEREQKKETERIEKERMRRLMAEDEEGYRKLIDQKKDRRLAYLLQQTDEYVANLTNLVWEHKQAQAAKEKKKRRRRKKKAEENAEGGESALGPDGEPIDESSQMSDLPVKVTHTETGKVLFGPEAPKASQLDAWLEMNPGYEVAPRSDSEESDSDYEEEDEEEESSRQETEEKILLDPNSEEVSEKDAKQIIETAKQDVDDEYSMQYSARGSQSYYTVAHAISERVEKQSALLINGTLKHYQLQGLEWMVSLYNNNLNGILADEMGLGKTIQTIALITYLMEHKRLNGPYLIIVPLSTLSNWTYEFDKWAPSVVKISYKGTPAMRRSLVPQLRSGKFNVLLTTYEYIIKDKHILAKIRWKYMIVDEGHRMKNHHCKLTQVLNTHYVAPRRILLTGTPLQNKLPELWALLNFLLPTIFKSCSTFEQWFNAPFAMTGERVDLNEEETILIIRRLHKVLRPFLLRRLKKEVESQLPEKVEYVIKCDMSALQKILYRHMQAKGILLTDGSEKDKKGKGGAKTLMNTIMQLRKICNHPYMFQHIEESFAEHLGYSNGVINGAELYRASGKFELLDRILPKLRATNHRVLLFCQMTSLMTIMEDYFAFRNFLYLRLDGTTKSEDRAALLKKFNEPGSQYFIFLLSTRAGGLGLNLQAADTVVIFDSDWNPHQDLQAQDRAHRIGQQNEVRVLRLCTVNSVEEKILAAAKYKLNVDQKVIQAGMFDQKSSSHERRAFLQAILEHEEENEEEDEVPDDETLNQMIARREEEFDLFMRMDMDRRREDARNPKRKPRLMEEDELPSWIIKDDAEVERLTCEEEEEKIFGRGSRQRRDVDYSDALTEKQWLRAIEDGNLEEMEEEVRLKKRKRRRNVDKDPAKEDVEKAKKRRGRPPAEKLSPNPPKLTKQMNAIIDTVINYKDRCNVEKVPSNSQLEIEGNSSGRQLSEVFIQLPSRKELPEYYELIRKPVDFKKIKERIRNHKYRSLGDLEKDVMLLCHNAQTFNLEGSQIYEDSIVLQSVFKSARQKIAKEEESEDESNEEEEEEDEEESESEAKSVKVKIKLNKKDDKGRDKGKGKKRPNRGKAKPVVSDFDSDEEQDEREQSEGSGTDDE

T1 sequence (P51532 whole entry): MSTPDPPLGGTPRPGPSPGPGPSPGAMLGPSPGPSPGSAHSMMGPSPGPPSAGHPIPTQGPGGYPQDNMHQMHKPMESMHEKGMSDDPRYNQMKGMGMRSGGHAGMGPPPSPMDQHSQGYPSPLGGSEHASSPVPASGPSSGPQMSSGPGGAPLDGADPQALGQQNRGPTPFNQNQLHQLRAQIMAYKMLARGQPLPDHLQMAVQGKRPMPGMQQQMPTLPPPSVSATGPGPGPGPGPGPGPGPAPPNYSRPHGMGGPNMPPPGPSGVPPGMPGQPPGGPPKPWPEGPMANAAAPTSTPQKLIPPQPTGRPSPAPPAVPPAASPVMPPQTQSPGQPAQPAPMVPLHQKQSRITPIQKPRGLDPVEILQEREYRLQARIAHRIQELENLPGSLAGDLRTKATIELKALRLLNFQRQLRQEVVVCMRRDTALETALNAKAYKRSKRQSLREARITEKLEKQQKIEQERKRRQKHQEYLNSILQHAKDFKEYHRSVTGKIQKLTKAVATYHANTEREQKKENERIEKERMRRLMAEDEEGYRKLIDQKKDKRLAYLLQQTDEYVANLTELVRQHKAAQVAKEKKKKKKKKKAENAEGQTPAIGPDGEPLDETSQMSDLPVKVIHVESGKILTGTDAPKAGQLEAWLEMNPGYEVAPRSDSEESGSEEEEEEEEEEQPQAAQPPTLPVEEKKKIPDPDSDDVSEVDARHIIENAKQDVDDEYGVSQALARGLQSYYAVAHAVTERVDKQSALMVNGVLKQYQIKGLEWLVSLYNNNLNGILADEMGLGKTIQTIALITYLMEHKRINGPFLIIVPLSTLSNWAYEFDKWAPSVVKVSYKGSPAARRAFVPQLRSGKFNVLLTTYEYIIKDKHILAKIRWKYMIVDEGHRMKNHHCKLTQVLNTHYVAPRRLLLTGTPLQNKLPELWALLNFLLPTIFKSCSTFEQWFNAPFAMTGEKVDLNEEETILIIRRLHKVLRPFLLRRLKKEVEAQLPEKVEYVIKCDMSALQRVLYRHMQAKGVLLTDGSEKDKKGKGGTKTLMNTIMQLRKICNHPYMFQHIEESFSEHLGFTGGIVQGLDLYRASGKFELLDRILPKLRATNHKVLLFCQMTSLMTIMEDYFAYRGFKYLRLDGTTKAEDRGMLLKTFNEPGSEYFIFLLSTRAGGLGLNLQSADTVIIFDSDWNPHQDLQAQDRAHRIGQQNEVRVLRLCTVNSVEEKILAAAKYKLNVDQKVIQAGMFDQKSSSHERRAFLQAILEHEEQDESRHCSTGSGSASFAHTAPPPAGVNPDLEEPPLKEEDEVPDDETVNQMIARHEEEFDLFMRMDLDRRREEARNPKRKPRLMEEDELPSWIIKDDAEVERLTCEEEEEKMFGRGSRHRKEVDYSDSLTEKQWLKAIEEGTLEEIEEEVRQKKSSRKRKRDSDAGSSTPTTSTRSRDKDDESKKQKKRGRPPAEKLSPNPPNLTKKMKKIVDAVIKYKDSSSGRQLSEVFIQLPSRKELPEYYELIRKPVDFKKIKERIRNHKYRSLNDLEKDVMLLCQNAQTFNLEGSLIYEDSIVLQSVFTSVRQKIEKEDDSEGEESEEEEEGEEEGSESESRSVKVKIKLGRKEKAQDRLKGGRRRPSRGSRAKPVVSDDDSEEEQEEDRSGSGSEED

Row | IC50 [1] [µM] | IC50 [2] [µM] | Compound
1 | < 0.01 | < 0.01 | C[C@@H]1CN(c2cccc(-c3csc(NC(=O)CNC(=O)c4ccn(C(C)(C)C#N)c4)n3)n2)C[C@H](C)O1 [Compound 331]
2 | > 0.1 | > 0.01 | C[C@@H]1CN(c2cccc(-c3csc(NC(=O)CNC(=O)c4ccn(C5(C(F)(F)F)CC5)c4)n3)n2)C[C@H](C)O1 [Compound 332]
3 | < 0.01 | < 0.01 | C[C@@H]1CN(c2cccc(-c3csc(NC(=O)CNC(=O)c4ccn(C5(C)CC5)c4)n3)n2)C[C@H](C)O1 [Compound 333]
4 | > 0.01 | > 0.01 | C[C@@H]1CCCN(c2cccc(-c3csc(NC(=O)CNC(=O)c4ccn(S(C)(=O)=O)c4)n3)n2)C1 [Compound 336]
5 | > 0.01 | > 0.01 | CC1(n2ccc(C(=O)NCC(=O)Nc3nc(-c4cccc(N5CCC(O)CC5)n4)cs3)c2)COC1 [Compound 337]
6 | > 0.01 | > 0.01 | CS(=O)(=O)n1ccc(C(=O)NCC(=O)Nc2nc(-c3cccc(N4CCC(F)CC4)n3)cs2)c1 [Compound 339]
7 | > 0.01 | > 0.01 | C[C@H]1CCCN(c2cccc(-c3csc(NC(=O)CNC(=O)c4ccn(S(C)(=O)=O)c4)n3)n2)C1 [Compound 340]
8 | > 0.1 | > 0.01 | CC1(n2ccc(C(=O)NCC(=O)Nc3nc(-c4cccc(N5CCOCC5)n4)cs3)c2)COC1 [Compound 341]
9 | > 0.1 | > 0.01 | C[C@@H]1CN(c2cccc(-c3csc(NC(=O)CNC(=O)c4ccn(C5COC5)c4)n3)n2)C[C@H](C)O1 [Compound 343]
10 | > 0.01 | > 0.01 | C[C@@H]1CN(c2cccc(-c3csc(NC(=O)CNC(=O)c4ccn(C(C)(C)C)n4)n3)n2)C[C@H](C)O1 [Compound 344]
11 | > 0.1 | > 0.1 | COC[C@H](NC(=O)c1ccn(C(C)(C)C)n1)C(=O)Nc1nc(-c2ccc3ccn(C)c(=O)c3c2)cs1 [Compound 345]
12 | > 0.01 | > 0.01 | CCn1ccc2ccc(-c3csc(NC(=O)[C@H](COC)NC(=O)c4ccn(C(C)(C)C)c4)n3)cc2c1=O [Compound 347]
13 | > 0.01 | > 0.01 | C[C@H](NC(=O)c1ccn(C2(C)COC2)c1)C(=O)Nc1nc(-c2ccc3ccn(C)c(=O)c3c2)cs1 [Compound 348]
14 | > 0.01 | > 0.01 | CS(=O)(=O)n1ccc(C(=O)NCC(=O)Nc2nc(-c3cccc(C#CC4COC4)c3)cs2)c1 [Compound 349]
15 | > 0.01 | > 0.01 | COC[C@H](NC(=O)c1ccn(S(C)(=O)=O)c1)C(=O)Nc1nc(-c2ccc3c(c2)C(=O)N(C)CC3)cs1 [Compound 351]
16 | < 0.01 | < 0.01 | COC[C@H](NC(=O)c1ccn(S(C)(=O)=O)c1)C(=O)Nc1nc(-c2cccc(-c3cnn(C)n3)c2)cs1 [Compound 352]
17 | > 0.1 | > 0.01 | COC[C@H](NC(=O)c1ccn(S(C)(=O)=O)c1)C(=O)Nc1nc(-c2cccc(C3CC(C)(C)OC(C)(C)C3)c2)cs1 [Compound 353]
18 | > 0.01 | > 0.01 | COC[C@H](NC(=O)c1ccn(S(C)(=O)=O)c1)C(=O)Nc1nc(-c2cccc(C3=CC(C)(C)OC(C)(C)C3)c2)cs1 [Compound 354]
19 | > 0.01 | > 0.01 | C[C@H](NC(=O)c1ccn(S(C)(=O)=O)c1)C(=O)Nc1nc(-c2cccc(-c3cnn(C)n3)c2)cs1 [Compound 355]
20 | > 0.01 | > 0.01 | COC[C@H](NC(=O)c1ccn(S(C)(=O)=O)c1)C(=O)Nc1nc(-c2cccc(-c3cccc(C)n3)c2)cs1 [Compound 356]
21 | < 0.01 | < 0.01 | COC[C@H](NC(=O)c1ccn(S(C)(=O)=O)c1)C(=O)Nc1nc(-c2cccc(-c3ccnc(C)n3)c2)cs1 [Compound 357, N-[(1S)-1-(methoxymethyl)-2-[[4-[3-(2-methylpyrimidin-4-yl)phenyl]thiazol-2-yl]amino]-2-oxo-ethyl]-1-methylsulfonyl-pyrrole-3-carboxamide]
22 | < 0.01 | < 0.01 | COC[C@H](NC(=O)c1ccn(S(C)(=O)=O)c1)C(=O)Nc1nc(-c2cccc(-c3cc(C)nc(C)n3)c2)cs1 [Compound 358, N-[(1S)-2-[[4-[3-(2,6-dimethylpyrimidin-4-yl)phenyl]thiazol-2-yl]amino]-1-(methoxymethyl)-2-oxo-ethyl]-1-methylsulfonyl-pyrrole-3-carboxamide]
23 | < 0.01 | < 0.01 | COC[C@H](NC(=O)c1ccn(S(C)(=O)=O)c1)C(=O)Nc1nc(-c2cccc(-c3ccnc(C(F)F)c3)c2)cs1 [Compound 359]
24 | > 0.01 | > 0.01 | COC[C@H](NC(=O)c1ccn(S(C)(=O)=O)c1)C(=O)Nc1nc(-c2cccc(-c3cnn(C)c3)c2)cs1 [Compound 360]

Row | IC50 [1] [µM] | IC50 [2] [µM] | Compound
25 | > 0.01 | > 0.01 | CC1(C#Cc2cccc(-c3csc(NC(=O)CNC(=O)c4ccn(S(C)(=O)=O)c4)n3)c2)COC1 [Compound 361, N-(2-((4-(3-((3-methyloxetan-3-yl)ethynyl)phenyl)thiazol-2-yl)amino)-2-oxoethyl)-1-(methylsulfonyl)-1H-pyrrole-3-carboxamide]
26 | > 0.1 | > 0.1 | COC(C)(C)C#Cc1cccc(-c2csc(NC(=O)CNC(=O)c3ccn(C(C)(C)C)c3)n2)n1 [Compound 362, 1-(tert-butyl)-N-(2-((4-(6-(3-methoxy-3-methylbut-1-yn-1-yl)pyridin-2-yl)thiazol-2-yl)amino)-2-oxoethyl)-1H-pyrrole-3-carboxamide]
27 | > 0.01 | > 0.01 | COC(C)(C)C#Cc1cccc(-c2csc(NC(=O)CNC(=O)c3ccn(S(C)(=O)=O)c3)n2)c1 [Compound 363]
28 | > 0.01 | > 0.01 | C[C@H](NC(=O)c1ccn(S(C)(=O)=O)c1)C(=O)Nc1nc(-c2cccc(N3CCC3)c2)cs1 [Compound 364]
29 | > 0.01 | > 0.01 | C[C@H](NC(=O)c1ccn(S(C)(=O)=O)c1)C(=O)Nc1nc(-c2cccc(N3CC(O)C3)c2)cs1 [Compound 365]
30 | > 0.01 | < 0.01 | COC[C@H](NC(=O)c1ccn(S(C)(=O)=O)c1)C(=O)Nc1nc(-c2cccc(N3CCC3)c2)cs1 [Compound 366]
31 | > 0.01 | > 0.01 | COC[C@H](NC(=O)c1ccn(S(C)(=O)=O)c1)C(=O)Nc1nc(-c2cccc(N3CC(OC)C3)c2)cs1 [Compound 367]
32 | > 0.01 | > 0.01 | COC[C@H](NC(=O)c1ccn(S(C)(=O)=O)c1)C(=O)Nc1nc(-c2cccc(N3C[C@@H](C)O[C@@H](C)C3)c2F)cs1 [Compound 368]
33 | > 0.01 | < 0.01 | COC[C@H](NC(=O)c1ccn(S(C)(=O)=O)c1)C(=O)Nc1nc(-c2cccc(N3CCC(O)CC3)c2)cs1 [Compound 369]
34 | > 0.01 | > 0.01 | C[C@H](NC(=O)c1ccn(S(C)(=O)=O)c1)C(=O)Nc1nc(-c2cccc(N3CCC(O)CC3)c2)cs1 [Compound 370]
35 | < 0.01 | < 0.01 | COC[C@H](NC(=O)c1ccn(S(C)(=O)=O)c1)C(=O)Nc1nc(-c2cccc(N3C[C@@H](C)O[C@@H](C)C3)c2)cs1 [Compound 371]
36 | > 0.01 | < 0.01 | COC[C@H](NC(=O)c1ccn(S(C)(=O)=O)c1)C(=O)Nc1nc(-c2cccc(N3CCO[C@H](C)C3)c2)cs1 [Compound 372]
37 | > 0.01 | < 0.01 | COC[C@H](NC(=O)c1ccn(S(C)(=O)=O)c1)C(=O)Nc1nc(-c2cccc(N3CCO[C@@H](C)C3)c2)cs1 [Compound 373]
38 | > 0.01 | > 0.01 | C[C@@H]1CN(c2cccc(-c3cccc(NC(=O)CNC(=O)c4ccn(S(C)(=O)=O)c4)n3)c2)C[C@H](C)O1 [Compound 374, N-[2-[[6-[3-[(cis)-2,6-dimethylmorpholin-4-yl]phenyl]-2-pyridyl]amino]-2-oxo-ethyl]-1-methylsulfonyl-pyrrole-3-carboxamide]
39 | > 0.01 | > 0.01 | C[C@@H]1CN(c2cccc(-c3csc(NC(=O)[C@H](CO)NC(=O)c4ccn(C5(C)COC5)c4)n3)n2)C[C@H](C)O1 [Compound 375]
40 | > 0.01 | > 0.01 | COC[C@H](NC(=O)c1ccn(C2(C)COC2)c1)C(=O)Nc1nc(-c2ccc(F)c(N3C[C@@H](C)O[C@@H](C)C3)n2)cs1 [Compound 376]
41 | > 0.01 | < 0.01 | COC[C@H](NC(=O)c1ccn(S(C)(=O)=O)c1)C(=O)Nc1nc(-c2ccc(F)c(N3C[C@@H](C)O[C@@H](C)C3)n2)cs1 [Compound 377]
42 | > 0.01 | < 0.01 | C[C@@H]1CN(c2nc(-c3csc(NC(=O)CNC(=O)c4ccn(C5(C)COC5)c4)n3)ccc2F)C[C@H](C)O1 [Compound 378]
43 | < 0.01 | < 0.01 | C[C@@H]1CN(c2nc(-c3csc(NC(=O)CNC(=O)c4ccn(S(C)(=O)=O)c4)n3)ccc2F)C[C@H](C)O1 [Compound 379]
44 | < 0.01 | < 0.01 | COC[C@H](NC(=O)c1ccn(S(C)(=O)=O)c1)C(=O)Nc1nc(-c2cc(F)c(F)c(N3C[C@@H](C)O[C@@H](C)C3)c2)cs1 [Compound 380]
45 | > 0.01 | < 0.01 | COC[C@H](NC(=O)c1ccn(C(C)(C)C)c1)C(=O)Nc1nc(-c2ccnc(N3C[C@@H](C)O[C@@H](C)C3)n2)cs1 [Compound 381]
46 | > 0.01 | > 0.01 | Cn1ncc(-c2cccc(-c3csc(NC(=O)CNC(=O)c4ccn(C(C)(C)C)c4)n3)n2)n1 [Compound 382, 1-tert-butyl-N-[2-[[4-[6-(2-methyltriazol-4-yl)-2-pyridyl]thiazol-2-yl]amino]-2-oxo-ethyl]pyrrole-3-carboxamide]
47 | > 0.1 | > 0.01 | CN1CCCc2ccc(-c3csc(NC(=O)CNC(=O)c4ccn(C(C)(C)C)c4)n3)nc21 [Compound 383]
48 | < 0.01 | < 0.01 | C[C@@H]1CN(c2cc(-c3csc(NC(=O)CNC(=O)c4ccn(S(C)(=O)=O)c4)n3)cc(F)c2F)C[C@H](C)O1 [Compound 384]
